# Test results: PubChem BioAssay (NCI)
#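 The compound was tested at five concentrations on cells cultured in 96-well plates, with a 48-hour exposure period. GI50: concentration for 50% inhibition of growth. TGI: total growth inhibition.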
# Columns and labels:
# Assay in all cases: NCI-60 cell line screen, 48 h
# [1] = test system: 786-0 renal
# [2] = test system: A498 renal
# [3] = test system: A549 NSCLC
# [4] = test system: ACHN renal
# [5] = test system: BT-549 breast
# [6] = test system: CAKI-1 renal
# [7] = test system: CCRF-CEM leukemia
# [8] = test system: COLO 205 colon
# [9] = test system: DU-145 prostate
# [10] = test system: EKVX NSCLC
# [11] = test system: HCC-2998 colon
# [12] = test system: HCT-116 colon
# [13] = test system: HCT-15 colon
# [14] = test system: HL-60(TB) leukemia
# [15] = test system: HOP-62 NSCLC
# [16] = test system: HOP-92 NSCLC
# [17] = test system: HS 578T breast
# [18] = test system: HT29 colon
# [19] = test system: IGROV1 ovarian
# [20] = test system: K-562 leukemia
# [21] = test system: KM12 colon
# [22] = test system: LOX IMVI melanoma
# [23] = test system: M14 melanoma
# [24] = test system: MALME-3M melanoma
# [25] = test system: MCF7 breast
# [26] = test system: MDA-MB-231 breast
# [27] = test system: MDA-MB-435
# [28] = test system: MOLT-4 leukemia
# [29] = test system: NCI-H226 lung
# [30] = test system: NCI-H460 lung
# [31] = test system: NCI-H522 lung
# [32] = test system: NCI/ADR-RES ovarian
# [33] = test system: OVCAR-3 ovarian
# [34] = test system: OVCAR-4 ovarian
# [35] = test system: OVCAR-5 ovarian
# [36] = test system: OVCAR-8 ovarian
# [37] = test system: PC-3 prostate
# [38] = test system: RPMI-8226 leukemia
# [39] = test system: RXF 393 renal
# [40] = test system: SF-268 CNS
# [41] = test system: SF-295 CNS
# [42] = test system: SF-539 CNS
# [43] = test system: SK-MEL-2 melanoma
# [44] = test system: SK-MEL-28 melanoma
# [45] = test system: SK-MEL-5 melanoma
# [46] = test system: SK-OV-3 ovarian
# [47] = test system: SN12C renal
# [48] = test system: SNB-19 CNS
# [49] = test system: SNB-75 CNS
# [50] = test system: SR leukemia
# [51] = test system: SW-620 colon
# [52] = test system: T-47D breast
# [53] = test system: TK-10 renal
# [54] = test system: U251 CNS
# [55] = test system: UACC-257 melanoma
# [56] = test system: UACC-62 melanoma
# [57] = test system: UO-31 renal
smiles,measurement,setting,value
c1ccc2c(NCCCN3CCOCC3)c3oc4ccccc4c3nc2c1,GI50,[1],1950 nM
same,TGI,[1],14000 nM
same,GI50,[2],2010 nM
same,TGI,[2],4410 nM
same,GI50,[3],1580 nM
same,TGI,[3],12600 nM
same,GI50,[4],577 nM
same,TGI,[4],20100 nM
same,GI50,[5],2030 nM
same,TGI,[5],4750 nM
same,GI50,[6],1100 nM
same,TGI,[6],11100 nM
same,GI50,[7],1640 nM
same,TGI,[7],15000 nM
same,GI50,[8],949 nM
same,TGI,[8],2770 nM
same,GI50,[9],1550 nM
same,TGI,[9],16200 nM
same,GI50,[10],2540 nM
same,TGI,[10],13200 nM
same,GI50,[11],1100 nM
same,TGI,[11],3720 nM
same,GI50,[12],437 nM
same,TGI,[12],11100 nM
same,GI50,[13],719 nM
same,TGI,[13],12200 nM
same,GI50,[14],2340 nM
same,TGI,[14],8590 nM
same,GI50,[15],1670 nM
same,TGI,[15],8180 nM
same,GI50,[16],2100 nM
same,TGI,[16],5820 nM
same,GI50,[17],2080 nM
same,TGI,[17],6990 nM
same,GI50,[18],566 nM
same,TGI,[18],2330 nM
same,GI50,[19],2260 nM
same,TGI,[19],12000 nM
same,GI50,[20],649 nM
same,TGI,[20],> 100000 nM
same,GI50,[21],1460 nM
same,TGI,[21],15300 nM
same,GI50,[22],568 nM
same,TGI,[22],3230 nM
same,GI50,[23],1660 nM
same,TGI,[23],4110 nM
same,GI50,[24],1820 nM
same,TGI,[24],3850 nM
same,GI50,[25],1020 nM
same,TGI,[25],5830 nM
same,GI50,[26],1540 nM
same,TGI,[26],7140 nM
same,GI50,[27],1260 nM
same,TGI,[27],2610 nM
same,GI50,[28],476 nM
same,TGI,[28],38100 nM
same,GI50,[29],1930 nM
same,TGI,[29],5300 nM
same,GI50,[30],459 nM
same,TGI,[30],5960 nM
same,GI50,[31],1280 nM
same,TGI,[31],3150 nM
same,GI50,[32],692 nM
same,TGI,[32],10900 nM
same,GI50,[33],2410 nM
same,TGI,[33],45400 nM
same,GI50,[34],1240 nM
same,TGI,[34],5140 nM
same,GI50,[35],1570 nM
same,TGI,[35],7280 nM
same,GI50,[36],1170 nM
same,TGI,[36],11200 nM
same,GI50,[37],1890 nM
same,TGI,[37],7590 nM
same,GI50,[38],1720 nM
same,TGI,[38],6280 nM
same,GI50,[39],1290 nM
same,TGI,[39],3220 nM
same,GI50,[40],1250 nM
same,TGI,[40],15500 nM
same,GI50,[41],1590 nM
same,TGI,[41],10700 nM
same,GI50,[42],1500 nM
same,TGI,[42],3460 nM
same,GI50,[43],1730 nM
same,TGI,[43],3290 nM
same,GI50,[44],1880 nM
same,TGI,[44],3790 nM
same,GI50,[45],1980 nM
same,TGI,[45],3990 nM
same,GI50,[46],3140 nM
same,TGI,[46],18600 nM
same,GI50,[47],1020 nM
same,TGI,[47],11500 nM
same,GI50,[48],1870 nM
same,TGI,[48],13100 nM
same,GI50,[49],1310 nM
same,TGI,[49],2600 nM
same,GI50,[50],599 nM
same,TGI,[50],10100 nM
same,GI50,[51],509 nM
same,TGI,[51],10500 nM
same,GI50,[52],2610 nM
same,TGI,[52],9770 nM
same,GI50,[53],2550 nM
same,TGI,[53],9750 nM
same,GI50,[54],1490 nM
same,TGI,[54],11000 nM
same,GI50,[55],1940 nM
same,TGI,[55],4080 nM
same,GI50,[56],2160 nM
same,TGI,[56],5490 nM
same,GI50,[57],1730 nM
same,TGI,[57],11700 nM
